Patent publication US10400274B2, “Fluorogenic probes and their use in quantitative detection of target RNA sequences” (JAN BIOTECH, INC., priority 2016, dated 2019)

What was measured:
[1] = test system: synthetic HIV RNA targets; assay: qLDR probe set testing against synthetic HIV RNA targets; settings: initial testing with synthetic HIV RNA targets
Method: The qLDR reaction contained optimized probe concentrations at 10-100 pM and a total reaction volume of 50 μL. The qLDR reaction for each probe set was optimized against the commensurate synthetic HIV RNA targets using fluorescence microscopy and fluorescence emission in a 96-well format in a desktop fluorometer, with readings normalized to background.

HIV RNA of ACH-2 cells = assay: HIV qLDR on PMA-activated ACH-2 cells in A3.01 cells (latent vs. active); assay type: cell-based; settings: 10 ACH-2 cells in 10^6 A3.01 cells; PMA 1 μM for 0, 3, 8, 24 hr; FIG. 9
Method: For cell line testing (FIG. 9), ACH-2 and A3.01 cells were grown in T-75 flasks and plated at 1 mL per well in a 24-well culture plate in RPMI medium. After the wells reached 60% confluency, cells were activated for 0, 3, 8, and 24 hr with PMA (phorbal 12-myristate 13-acetate) at 1 μM final concentration per well. The experiment was performed such that each activation time endpoint represented the same total growth time. The activated ACH-2 cells were harvested from each well and counted. After preservation and shipping in 90% FBS/10% DMSO at −80° C., the cell suspensions were recounted, diluted and added at 10 cells into 10^6 A3.01 cells activated for the matching time period. HIV qLDR, using probes SEQ ID NO: 9/SEQ ID NO: 10 for 2 kb tat-rev transcripts, SEQ ID NO: 1/SEQ ID NO: 2 for 9 kb transcripts, and SEQ ID NO: 1/SEQ ID NO: 2 and SEQ ID NO: 5/SEQ ID NO: 6 for 4 kb transcripts, was performed on the cells and fluorometric readings in a 96-well plate format were normalized to background. […] Thus, the ratio of cell-based tat-rev to 4 kb/9 kb HIV RNA levels may be a useful measure of latent to active cell number.

cellular HIV RNA = assay: HIV qLDR on CD4-enriched PBMC lysates from HIV- and HIV+ participants; assay type: cell-based, human; settings: FIG. 10a-b; for detection of cellular HIV RNA in HIV+ HAART (latent) samples / detection of cellular HIV RNA in HIV- samples: CD4-enriched PBMC lysates, 20 mL blood; for detection between latent and HIV+ non-HAART (active) samples: including viremic participants and elite controllers
Method: For human sample testing (FIG. 10a-b) by HIV qLDR, CD4-enriched PBMC from HIV− and HIV+ participants were tested by the HIV qLDR probes SEQ ID NO: 9/SEQ ID NO: 10 for 2 kb tat-rev transcripts and SEQ ID NO: 5/SEQ ID NO: 6 for 9 kb and 4 kb transcripts. Lysates were tested from five individuals/class. Tests were performed in triplicate with 20 mL blood.

HIV pol/protease region = assay: HIV qLDR compared with HIV RT-qPCR on human peripheral blood samples; assay type: cell-based; settings: CD4+ T cells for qLDR, blood plasma for RT-qPCR; FIG. 11
Method: For human sample testing comparison with HIV RT-qPCR (FIG. 11), blood plasma was used for RT-qPCR and CD4+ T cells were used for qLDR. RT-qPCR was performed using primers and probe to the HIV gag-pol region, as described in Livak et al., 1995, for best comparison with HIV qLDR with probes SEQ ID NO: 1/SEQ ID NO: 2 to the HIV pol/protease region. HIV RNA was isolated from blood plasma samples prior to RT-qPCR. An RT-qPCR standard was prepared by in vitro transcription of a synthetic HIV T7 plasmid, and RNA copy number was determined using a standard curve generated with the RT-qPCR standard.

## SEQ ID NO: 5/SEQ ID NO: 6: fluorogenic probe pair SEQ ID NO: 5 (Ald-2) and 6 (Ind), HIV-1 gp160/41, detects 4 kb spliced and 9 kb RNA (chain 1 ATAGTGCTTCCTGCT; chain 2 GTCATTGAGGCTGCG; fluorogenic labels; Latent HIV-1 qLDR Oligonucleotide Probe; (1)..(1) Fluorogenic probe moiety attachment position on probe sequence; (15)..(15) Fluorogenic probe moiety attachment position on probe sequence)
[1]
  detection efficiency: comparable detection efficiency
HIV RNA of ACH-2 cells
  change of fluorescence level through activation time course: marked increase
Cellular HIV RNA
  detection of cellular HIV RNA in HIV+ HAART (latent) samples: successfully detected
  detection of cellular HIV RNA in HIV- samples: not in HIV—samples
  detection between latent and HIV+ non-HAART (active) samples: differential detection

## SEQ ID NO: 9/SEQ ID NO: 10: fluorogenic PNA probe pair SEQ ID NO: 9 (Ald-1) and 10 (Ind), tat-rev, detects spliced 2 kb HIV-1 RNA (chain 1 CTTTG; chain 2 TGGGT; PNA; fluorogenic labels; Latent HIV-1 qLDR Oligonucleotide Probe; (1)..(1) Fluorogenic probe moiety attachment position on probe sequence; (1)..(5) Peptide nucleic acid 5′ Ald-CTTTG-DMLys-DMLys- CONH2; (1)..(5) Peptide nucleic acid 3′ Ind-TGGGT-DMLys-DMLys- CONH2; (5)..(5) Fluorogenic probe moiety attachment position on probe sequence)
[1]
  detection efficiency: comparable detection efficiency
HIV RNA of ACH-2 cells
  change of fluorescence level through activation time course: relatively little increase
Cellular HIV RNA
  detection of cellular HIV RNA in HIV+ HAART (latent) samples: successfully detected
  detection of cellular HIV RNA in HIV- samples: not in HIV—samples
  detection between latent and HIV+ non-HAART (active) samples: differential detection

## SEQ ID NO: 1/SEQ ID NO: 2: fluorogenic probe pair SEQ ID NO: 1 (Ald-1) and 2 (Ind), HIV-1 pol/protease, detects full length 9 kb RNA (chain 1 CCTGTATCTAATAGAGC; chain 2 TCTAATACTGTATCATCT; fluorogenic labels; Latent HIV-1 qLDR Oligonucleotide Probe; (1)..(1) Fluorogenic probe moiety attachment position on probe sequence; (18)..(18) Fluorogenic probe moiety attachment position on probe sequence)
[1]
  detection efficiency: comparable detection efficiency
HIV RNA of ACH-2 cells
  change of fluorescence level through activation time course: marked increase
HIV pol/protease region
  correlation of HIV qLDR results with HIV RT-PCR viremia results: closely correlated
